Measured values published in article PMC6143143 (Biochemistry, 2018).

Legend:
[1] = molecular target: MmCobD (MM2060 protein, full length) (Methanosarcina mazei, UniProt Q8PVB1); test: ADP-Glo ATPase inhibition assay; format: biochemical; conditions: MmCobD 6 μM, HEPES pH 7.5
SeCobD = molecular target: T1, SeCobD (Salmonella enterica, UniProt P97084); test: […]-NMR and […] TLC decarboxylation assay; format: biochemical; conditions: decarboxylated to (R)-1-aminopropan-2-ol O-phosphate; pH 8.5
T1 sequence (P97084 1-364): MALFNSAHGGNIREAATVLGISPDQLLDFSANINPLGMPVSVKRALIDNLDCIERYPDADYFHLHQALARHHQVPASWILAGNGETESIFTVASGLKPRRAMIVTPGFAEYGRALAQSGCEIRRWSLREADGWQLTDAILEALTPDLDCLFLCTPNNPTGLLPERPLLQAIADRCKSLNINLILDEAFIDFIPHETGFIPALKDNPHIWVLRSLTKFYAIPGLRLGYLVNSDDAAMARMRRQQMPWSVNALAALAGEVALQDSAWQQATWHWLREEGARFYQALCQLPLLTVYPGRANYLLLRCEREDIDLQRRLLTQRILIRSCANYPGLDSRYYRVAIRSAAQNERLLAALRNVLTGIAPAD

Compound: [O]=[V]([OH])([OH])[OH] [Na3VO4]
- inhibition ([1]; inhibitor 1 mM, weakest of the series): MmCobD was inhibited in the following order from most inhibitory to least: BeF2>ADP>ADP-γ-S>PPPi>Na3VO4

Compound: O=P(O)(O)OP(=O)(O)OP(=O)(O)O [PPPi]
- inhibition ([1]; inhibitor 10 mM): MmCobD was inhibited in the following order from most inhibitory to least: BeF2>ADP>ADP-γ-S>PPPi>Na3VO4

Compound: C[C@@H](OP(=O)(O)O)[C@H](N)C(=O)O [L-Thr-P]
- 13C-NMR and 14C TLC decarboxylation assay (SeCobD): conversion of L-Thr-P (peaks A, B, C, D; red) to AP-P
